Read-outs that look alike come from different tables or passages of the source. Marks after values point to notes of the source that are not given here.
Assays:
EphrinB2-EphB2 [1] = biological target: T1, EphrinB2-EphB2 (Homo sapiens, UniProt P29323); test: Octet tetramerization inhibition, immobilized human EphrinB2 binding to 50 nM soluble human EphB2
T1 construct: soluble human EphB1-His, EphB2-His, and EphB4-His ectodomains; commercially available human EphrinB1-Fc (EB1), EphrinB2-Fc (EB2), and EphrinB3-Fc (EB3) ectodomain proteins; purchased
T1 sequence (P29323 19-543 limits assumed): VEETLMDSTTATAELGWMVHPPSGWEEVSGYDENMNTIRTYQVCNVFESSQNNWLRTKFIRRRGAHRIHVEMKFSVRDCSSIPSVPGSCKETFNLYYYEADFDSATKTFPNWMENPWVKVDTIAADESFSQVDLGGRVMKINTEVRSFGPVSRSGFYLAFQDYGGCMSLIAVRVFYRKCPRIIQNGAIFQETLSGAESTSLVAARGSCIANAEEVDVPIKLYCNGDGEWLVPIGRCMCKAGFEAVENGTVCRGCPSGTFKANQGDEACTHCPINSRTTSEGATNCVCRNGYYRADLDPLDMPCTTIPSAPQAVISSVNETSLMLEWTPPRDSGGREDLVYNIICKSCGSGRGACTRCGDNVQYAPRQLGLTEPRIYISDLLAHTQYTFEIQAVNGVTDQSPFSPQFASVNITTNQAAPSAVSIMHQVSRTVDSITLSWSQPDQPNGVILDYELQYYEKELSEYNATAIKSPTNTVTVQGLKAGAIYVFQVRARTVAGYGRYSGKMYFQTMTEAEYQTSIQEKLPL

EphrinB2-EphB2 [2] = biological target: T1, EphrinB2-EphB2; test: Octet 80 sec association/500 sec dissociation, immobilized human EphrinB2-Fc binding to soluble human EphB2-His; conditions: for inhibition at 3.2 µM: EphB2, 25 nM EphB2, 3.2 μM compound, A20-I as max control, 0* = less than 0, no inhibition
In short: (§1)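 EphrinB2-Fc captured on AHC biosensors, then soluble His-tagged EphB ectodomain (25 nM for % inhibition runs) associated 80 s and dissociated 500 s in PBS, 0.05% Tween-20, 1% DMSO ± compound. Compounds tested at 0.1–3.2 μM with a 10 μM max standard; IC50 from AUC of full traces or at 75 s and 135 s.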

EphrinB2-EphB4 = biological target: T2, EphrinB2-EphB4 (Homo sapiens, UniProt P54760); test: Octet 80 sec association/500 sec dissociation, immobilized human EphrinB2-Fc binding to soluble human EphB4-His; conditions: for inhibition at 3.2 µM: EphB4, 25 nM EphB4, 3.2 μM compound, A20-I as max control, 0* = less than 0, no inhibition
T2 construct: soluble human EphB1-His, EphB2-His, and EphB4-His ectodomains; commercially available human EphrinB1-Fc (EB1), EphrinB2-Fc (EB2), and EphrinB3-Fc (EB3) ectodomain proteins; purchased
T2 sequence (P54760 16-539 limits assumed): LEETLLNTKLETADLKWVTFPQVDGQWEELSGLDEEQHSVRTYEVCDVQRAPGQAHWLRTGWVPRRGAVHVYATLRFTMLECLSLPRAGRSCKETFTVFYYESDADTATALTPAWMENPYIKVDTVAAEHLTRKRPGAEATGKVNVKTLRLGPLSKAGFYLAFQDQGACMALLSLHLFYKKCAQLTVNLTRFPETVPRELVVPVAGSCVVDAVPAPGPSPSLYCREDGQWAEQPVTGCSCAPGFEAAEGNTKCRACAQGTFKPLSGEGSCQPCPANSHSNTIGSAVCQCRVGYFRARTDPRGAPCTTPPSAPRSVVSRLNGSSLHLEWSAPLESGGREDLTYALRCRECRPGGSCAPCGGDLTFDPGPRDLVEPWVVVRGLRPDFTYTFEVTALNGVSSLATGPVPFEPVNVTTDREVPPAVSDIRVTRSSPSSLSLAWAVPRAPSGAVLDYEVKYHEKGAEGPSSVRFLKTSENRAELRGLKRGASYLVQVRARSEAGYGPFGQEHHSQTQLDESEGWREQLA
In short: as §1

[3] = Absolute AUC/IC50, Table A, EphrinB2-EphB2
[4] = Absolute Association IC50 (300 sec), Table A, EphrinB2-EphB2
[5] = Absolute Dissociation IC50 (450 sec), Table A, EphrinB2-EphB2
[6] = Relative AUC/IC50, Table A, EphrinB2-EphB2, compound 7: association only
[7] = Relative Association IC50 (300 sec), Table A, EphrinB2-EphB2
[8] = Relative Dissociation IC50 (450 sec), Table A, EphrinB2-EphB2
[9] = read-out: % Inhibition: Association + Dissociation (160 sec)
[10] = read-out: % Inhibition: Association ONLY (80 sec)

IC50 (EphrinB2-EphB2 [1]; [5])	EphB2 Inhibition Percent, Inhibition of Association ONLY (EphrinB2-EphB2 [2]; at 3.2 μM and 80 seconds, immobilized human EphrinB2, 25 nM soluble human EphB2)	EphB2 Inhibition Percent, Inhibition of Association-Dissociation (EphrinB2-EphB2 [2]; at 3.2 μM and 580 seconds, immobilized human EphrinB2, 25 nM soluble human EphB2)	EphB4 Inhibition Percent, Inhibition of Association ONLY (EphrinB2-EphB4; at 3.2 μM and 80 seconds, immobilized human EphrinB2, 25 nM soluble human EphB4)	EphB4 Inhibition Percent, Inhibition of Association-Dissociation (EphrinB2-EphB4; at 3.2 μM and 580 seconds, immobilized human EphrinB2, 25 nM soluble human EphB4)	SMILES	IC50 (EphrinB2-EphB2 [1]; [3])	IC50 (EphrinB2-EphB2 [1]; [4])	IC50 (EphrinB2-EphB2 [1]; [6])	IC50 (EphrinB2-EphB2 [1]; [7])	IC50 (EphrinB2-EphB2 [1]; [8])	IC50 (EphrinB2-EphB2 [1]; tetramerization inhibitor IC50 (relative), association step, surmountable tetramer)	inhibition at 3.2 µM (EphrinB2-EphB2 [2]; [9])	inhibition at 3.2 µM (EphrinB2-EphB2 [2]; [10])	inhibition at 3.2 µM (EphrinB2-EphB4; [9])	inhibition at 3.2 µM (EphrinB2-EphB4; [10])
> 1.6 µM					COc1ccc2[nH]cc(C(=O)N3CCN(c4ccccc4OC)CC3)c2c1 [Compound 64, (5-methoxy-1H-indol-3-yl)(4-(2-methoxyphenyl)piperazin-1-yl)methanone]	> 1.6 µM	> 1.6 µM	> 1.6 µM	> 1.6 µM	> 1.6 µM		0%	0%	0%	0%
					Oc1ccc(CN2CCN(c3ccc(Br)cn3)CC2)c2cccnc12 [Compound 33, 5-((4-(5-bromopyridin-2-yl)piperazin-1-yl)methyl)quinolin-8-ol]	2.51 µM	> 3.2 µM	2.19 µM	1.82 µM	2.24 µM		81.6%	69.4%	36.9%	20.9%
> 1.6 µM	0*%	0*%	5.0%	0*%	Oc1ccc(CN2CCN(c3ccc(F)cc3F)CC2)c2cccnc12 [Compound 62, 5-((4-(2,4-difluorophenyl)piperazin-1-yl)methyl)quinolin-8-ol]	> 1.6 µM	> 1.6 µM	> 1.6 µM	> 1.6 µM	> 1.6 µM					

SMILES	IC50 (EphrinB2-EphB2 [1]; [5])	EphB2 Inhibition Percent, Inhibition of Association ONLY (EphrinB2-EphB2 [2]; at 3.2 μM and 80 seconds, immobilized human EphrinB2, 25 nM soluble human EphB2)	EphB2 Inhibition Percent, Inhibition of Association-Dissociation (EphrinB2-EphB2 [2]; at 3.2 μM and 580 seconds, immobilized human EphrinB2, 25 nM soluble human EphB2)	EphB4 Inhibition Percent, Inhibition of Association ONLY (EphrinB2-EphB4; at 3.2 μM and 80 seconds, immobilized human EphrinB2, 25 nM soluble human EphB4)	EphB4 Inhibition Percent, Inhibition of Association-Dissociation (EphrinB2-EphB4; at 3.2 μM and 580 seconds, immobilized human EphrinB2, 25 nM soluble human EphB4)	IC50 (EphrinB2-EphB2 [1]; [3])	IC50 (EphrinB2-EphB2 [1]; [4])	IC50 (EphrinB2-EphB2 [1]; [6])	IC50 (EphrinB2-EphB2 [1]; [7])	IC50 (EphrinB2-EphB2 [1]; [8])	IC50 (EphrinB2-EphB2 [1]; tetramerization inhibitor IC50 (relative), association step, surmountable tetramer)	inhibition at 3.2 µM (EphrinB2-EphB2 [2]; [9])	inhibition at 3.2 µM (EphrinB2-EphB2 [2]; [10])	inhibition at 3.2 µM (EphrinB2-EphB4; [9])	inhibition at 3.2 µM (EphrinB2-EphB4; [10])
COc1ccccc1N1CCN(Cc2cc(Br)c(O)c3ncccc23)CC1 [Compound 70, 7-bromo-5-((4-(2-methoxyphenyl)piperazin-1-yl)methyl)quinolin-8-ol]	0.36 µM					> 1.6 µM	1.2 µM	0.17 µM	0.18 µM	0.19 µM	~0.2 µM	73%	53.4%	36.3%	15.1%

From patent publication US20260374739A1, “SMALL MOLECULAR WEIGHT CHEMICAL COMPOUND TO ANTAGONIZE EPH-EPHRIN TETRAMERIZATION AND INHIBIT BIDIRECTIONAL SIGNALING” (THE BOARD OF REGENTS OF THE UNIVERSITY OF TEXAS SYSTEM, priority 2022, published 2026)
